Measured values taken from publication PMC10377034, “Syntheses of 25-Adamantyl-25-alkyl-2-methylidene-1α,25-dihydroxyvitamin D3 Derivatives with Structure–Function Studies of Antagonistic and Agonistic Active Vitamin D Analogs” (Biomolecules, 2023).

Experiments:
[1] = test system: human dedifferentiated fat (DFAT) cells; assay: Osteogenic differentiation assay: ALP activity in human DFAT cells; assay type: cell-based; conditions: osteogenic medium, 100 nM, 7 days, natural hormone 1 = 100%
[2] = test system: CYP24A1 expression in MG63 cells; assay: CYP24A1 expression (RT-qPCR) in MG63 cells; conditions: MG63 bone cells, 100 nM, 24 h
Procedure: HEK293 human kidney cells (RIKEN Cell Bank, Tsukuba, Japan) were cultured in Dulbecco’s modified Eagle’s medium (DMEM) (Fujifilm Wako Pure Chemical Corporation, Tokyo, Japan) containing 5% fetal bovine serum (FBS), 100 U/mL penicillin, and 0.1 mg/mL streptomycin (Nacalai Tesque, Kyoto, Japan). SW480 human colon carcinoma cells (American Type Culture Collection, Manassas, VA) and HaCaT immortalized keratinocyte cells (kindly provided by Dr. Tadashi Terui, Department of Dermatology, Nihon University School of Medicine) were cultured in DMEM containing 10% FBS, 100 U/mL penicillin, and 0.1 mg/mL streptomycin. MG63 human osteosarcoma cells (RIKEN Cell Bank) and lung-derived H292 cells (American Type Culture Collection) were cultured in minimum essential medium containing 10% FBS, 100 U/mL penicillin, and 0.1 mg/mL streptomycin. […] All cells were cultured at 37 °C in a humidified atmosphere containing 5% CO2.
For gene expression analysis, 1 × 10^4 cells per well were plated in a 24-well plate. After 24 h, the cells were treated with an ethanol control or 100 nM of each test compound for 24 h. […] Real-time PCR was performed on the ABI PRISM 7000 sequence detection system (Thermo Fisher Scientific, Waltham, MA, USA) using Power SYBR Green PCR master mix (Thermo Fisher Scientific).

In the case of `C=C1[C@H](O)CC(=C/C=C2\CCC[C@]3(C)[C@@H]([C@H](C)CC#C[C@](O)(CCCC)C45CC6CC(CC(C6)C4)C5)CC[C@@H]23)C[C@H]1O` [ADKM6, (25S)-25-(1-Adamantyl)-1α,25-dihydroxy-2-methylidene-26-propyl-23-yne-19,27-dinorvitamin D3], the ALP activity [1] was 62.4% and the “CYP24A1 expression relative to natural hormone 1” value [2] was 54.2%.
